# In patent publication US20230210849A1, “CADHERIN-11 INHIBITOR FORMULATION AND ITS USES IN IMMUNOTHERAPY” (GEORGETOWN UNIVERSITY, priority 2020, published 2023):
# Entries after “also recorded” stand apart in the source; their conditions may differ.
# Key:
# [1] = tested on: mT3 pancreatic cancer cells; experiment: s.c. mT3 pancreatic tumor growth in immunocompetent C57BL/6J transplant mice; assay type: in vivo, mouse; details: for growth rate of pre-existing tumors: started at average tumor volume 100 mm^3 (FIG. 5H)
# From the text: The experimental protocols were approved by the Georgetown University Animal Care and Use Committee. A pair of CDH11^−/− mice (Horikawa et al. Dev. Biol. 215: 182-189 (1999)) was kindly provided by Dr. Michael Brenner from Harvard University. A breeding pair of p48-Cre;LSL-Kras^G12D/+;LSL-Trp53^R172H/+ (KPC) mice (Hingorani et al. Cancer Cell 7: 469-483 (2005)) was provided by Dr. Anton Wellstein from Georgetown University. C57BL/6J mice (Cat #000664; Research Resource Identifier (RRID): IMSR_JAX:000664) and Rag1-mutant mice on C57BL/6J background (Cat #002216; RRID: IMSR_JAX:002216) were purchased from The Jackson Laboratory (Bar Harbor, Me.). In transplant experiments, 12-week old C57BL/6J and Rag1-mutant (on C57BL/6J background) mice were bilaterally subcutaneously (s.c.) injected with 5×10^5 mT3 pancreatic cancer cells, derived from a Kras^+/LSL-G12D;Trp53^+/LSL-R172H;Pdx-Cre mouse on C57BL/6 background. Both genders of mice were equally represented throughout all in vivo experiments. Mice were housed in specific pathogen free environment under standard conditions. See, Bandrowski et al. “The Resource Identification Initiative: A cultural shift in publishing,” F1000Res 4: 134 (2015), regarding Research Resource Identifiers (RRIDs),
# (§1) Anti-PD1 (InVivoPlus anti-mouse PD1 (CD279), clone RMP1-14, Cat #BP0146, Bio X Cell (Lebanon, N.H.)) was administered intraperitoneally (i.p.) at 250 μg/mouse, 2× week. Gemcitabine (G-4177, LC Laboratories (Woburn, Mass.)) was administered i.p. at 100 mg/kg, 2× week. Treatment with CDH11 monoclonal antibody (mAb), SYN0012 (Roche (Basel, Switzerland)) was administered i.p. at 10 mg/kg, 2× week. Treatment with a small molecule CDH11-inhibitor, SD133, was administered i.p. at 150 mg/kg, 40 mg/kg or 10 mg/kg, 4× week. Stock solution of SD133 at 375 mg/mL was made in DMSO (Sigma (St. Louis, Mo.)), and further diluted in 30% PEG400 (Sigma).
# CDH11 = biological target: T1, CDH11 (Homo sapiens, UniProt P55287); details: in vitro; previously characterized and validated; cited from earlier work
# T1 sequence (P55287 54-796): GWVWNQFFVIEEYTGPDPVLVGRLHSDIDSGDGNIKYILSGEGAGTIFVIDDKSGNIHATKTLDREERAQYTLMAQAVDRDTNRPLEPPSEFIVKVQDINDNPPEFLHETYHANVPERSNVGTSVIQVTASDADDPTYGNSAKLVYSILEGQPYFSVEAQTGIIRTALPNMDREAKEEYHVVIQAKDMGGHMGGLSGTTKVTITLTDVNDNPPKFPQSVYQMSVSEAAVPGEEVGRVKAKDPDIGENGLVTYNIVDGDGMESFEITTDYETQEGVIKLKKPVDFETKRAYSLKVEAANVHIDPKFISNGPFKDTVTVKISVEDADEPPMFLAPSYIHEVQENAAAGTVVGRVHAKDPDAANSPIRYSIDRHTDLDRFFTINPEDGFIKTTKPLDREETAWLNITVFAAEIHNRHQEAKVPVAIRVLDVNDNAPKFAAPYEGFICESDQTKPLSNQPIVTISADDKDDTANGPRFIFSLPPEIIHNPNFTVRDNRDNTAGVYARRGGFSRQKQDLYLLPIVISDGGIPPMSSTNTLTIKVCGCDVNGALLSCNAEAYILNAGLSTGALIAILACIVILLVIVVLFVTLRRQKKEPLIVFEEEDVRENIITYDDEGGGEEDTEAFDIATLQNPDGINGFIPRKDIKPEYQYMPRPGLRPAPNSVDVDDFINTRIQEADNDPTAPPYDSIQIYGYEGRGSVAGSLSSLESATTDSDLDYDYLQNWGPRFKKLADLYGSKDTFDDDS
# [2] = Body weight / toxicity of treated mT3 tumor-bearing mice; assay type: in vivo, mouse
# Procedure: Body weight of C57BL/6J mice engrafted with syngeneic mT3 cells and treated with (A) vehicle (DMSO), (B) gemcitabine, (C) CDH11 mAb, (D) CDH11 mAb+ gemcitabine, (E) SD133 at 150 mg/kg for 2 weeks, (F) SD133 at 150 mg/kg for 2 weeks+ gemcitabine; (G) vehicle (10% DMSO in 30% PEG400), (H) SD133 at 150 mg/kg for 5 weeks, and mice with pre-existing mT3 tumors treated with (I) SD133 at 40 mg/kg, and (J) SD133 at 10 mg/kg. Mouse body weight was measured once or twice a week. Body weight of immunodeficient Rag1-mutant mice on C57BL/6J background with pre-existing syngeneic mT3 tumors treated with (K) vehicle (10% DMSO in 30% PEG400), and (L) SD133 at 40 mg/kg. Gender of mice is indicated in the graphs by commonly used gender symbols. The dose, route and treatment schedule are indicated in colored bars under the x-axes.
# as §1
# [3] = tested on: mT3 pancreatic cancer cells; experiment: s.c. mT3 tumor growth in immunocompromised Rag1-mutant mice; assay type: in vivo, mouse; details: SD133 40 mg/kg, pre-existing tumors 100 mm^3, Rag1-mutant mice without mature T and B cells (FIG. 5I)
# From the text: (§2) The experimental protocols were approved by the Georgetown University Animal Care and Use Committee. A pair of CDH11^−/− mice (Horikawa et al. Dev. Biol. 215: 182-189 (1999)) was kindly provided by Dr. Michael Brenner from Harvard University. A breeding pair of p48-Cre;LSL-Kras^G12D/+;LSL-Trp53^R172H/+ (KPC) mice (Hingorani et al. Cancer Cell 7: 469-483 (2005)) was provided by Dr. Anton Wellstein from Georgetown University. C57BL/6J mice (Cat #000664; Research Resource Identifier (RRID): IMSR_JAX:000664) and Rag1-mutant mice on C57BL/6J background (Cat #002216; RRID: IMSR_JAX:002216) were purchased from The Jackson Laboratory (Bar Harbor, Me.). In transplant experiments, 12-week old C57BL/6J and Rag1-mutant (on C57BL/6J background) mice were bilaterally subcutaneously (s.c.) injected with 5×10^5 mT3 pancreatic cancer cells, derived from a Kras^+/LSL-G12D;Trp53^+/LSL-R172H;Pdx-Cre mouse on C57BL/6 background. Both genders of mice were equally represented throughout all in vivo experiments. Mice were housed in specific pathogen free environment under standard conditions. See, Bandrowski et al. “The Resource Identification Initiative: A cultural shift in publishing,” F1000Res 4: 134 (2015), regarding Research Resource Identifiers (RRIDs), […]
# KPC mice (PDAC) = experiment: Survival of KPC transgenic PDAC mice under treatment; assay type: in vivo, mouse
# From the text: as §2
# [4] = single agent, mT3-engrafted mice (FIG. 11)
SMILES,growth rate of pre-existing tumors ([1]; SD133 10 mg/kg),growth rate of pre-existing tumors ([1]; SD133 40 mg/kg),"tumor growth ([1]; SD133 150 mg/kg continued throughout the study, 5 weeks (FIG. 5G))",combinatorial effect with gemcitabine on tumor growth ([1]; SD133 for 2 weeks + gemcitabine i.p. 100 mg/kg 2x week (FIG. 5F)),"tumor growth ([1]; SD133 i.p. 150 mg/kg 4x week for 2 weeks, beginning on day 2 after cancer cell injection (FIG. 5E))",tumor size versus control after treatment discontinued ([1]; after the 2-week SD133 treatment was discontinued),"efficacy as a monotherapy (summary) ([1]; immunocompetent mT3 model, summary statement)",affinity of binding to the CDH11 binding pocket (CDH11),"mouse body weight ([2]; in combination with gemcitabine, mT3-engrafted C57BL/6J mice (FIG. 11))","toxicity ([2]; mouse, in vivo)","mouse body weight [2, 4]",tumor growth [3],"first PDAC-related death (KPC mice (PDAC); KPC/CDH11-deficient mice, gemcitabine 6 weeks starting at 100 days of age)",overall survival versus untreated KPC/CDH11-deficient group (KPC mice (PDAC); gemcitabine 6 weeks starting at 100 days of age (FIG. 4B)),"tumor growth ([1]; monotherapy, gemcitabine i.p. 100 mg/kg 2x week or CDH11 mAb i.p. 10 mg/kg 2x week (FIG. 5A, 5B))"
Oc1ccc(-c2cccnc2-c2ccccc2)cc1 [SD133],significantly reduced,significantly reduced,reduced tumor growth was observed for the duration of the treatment,not observed,marked reduction in tumor growth,remained significantly smaller than tumors in control animals,remarkably effective,low μM,does not affect mouse body weight,no sign of toxicity,no decrease in animal weight; also recorded: does not affect mouse body weight,did not suppress tumor growth,,,
"Nc1ccn([C@@H]2O[C@H](CO)[C@@H](O)C2(F)F)c(=O)n1 [gemcitabine, reference compound]",,,,,,,,,,,does not affect mouse body weight,,165 days,improved significantly,did not reduce tumor growth
